Source: PMC3095642, “New Synthetic Thrombin Inhibitors: Molecular Design and Experimental Verification” (PLoS ONE, 2011)
Read-outs that look alike come from different tables or passages of the source. Marks after values point to notes of the source that are not given here.

Experiments:
[1] = tested on: thrombin generation in normal donor plasma (PPP); assay: Thrombin generation test in plasma (endogenous thrombin potential, ETP); type: biochemical, human
Experimental: The kinetics of thrombin generation in plasma was monitored using a modification of the standard method using a slow fluorogenic substrate BOC-Ile-Gly-Arg-AMC [8]. Normal donor plasma (PPP) was placed in the wells (90 µl/well) of a 96-well flat-bottom microtiter plate, after which 10 µl of the substance solution to be tested was added in different concentrations, along with 10 µl of the slow fluorogenic substrate (initial concentration 5 mM). In the control wells (without inhibitor), 10 µl of the solvent used was added (20 mM HEPES, pH 7.5 and 140 mM NaCl; or pure ethanol, or dimethylsulfoxide (DMSO) for different substances). The samples were incubated at 37°C for 3–5 min before being activated with thromboplastin, which was a 1∶250 dilution of a standard prothrombin time reagent (Renam, Moscow, Russia) in the same buffer supplemented with 90 mM CaCl2. The final concentration of tissue factor during activation was about 4 pM. Thromboplastin (25 µl) was added to all wells simultaneously using a multichannel micropipette. The moment of thromboplastin addition was taken as time zero. The kinetics of accumulation of the fluorescent reaction product 7-amino-4-methylcoumarine (AMC) was recorded for 65 min with a fluorometric Fluoroscan II reader (LabSystem, Finland) (λex. = 380 nm; λem. = 440 nm). The results were averaged over two parallel samples. The error of parallel measurements was within 2–5%. At every moment, the rate of product accumulation is proportional to the instant thrombin concentration present in plasma. Therefore, the curve for the temporal evolution of thrombin in the system may be obtained using differentiation of the curve for AMC accumulation. For each sample, arbitrary fluorescence units were converted to absolute AMC concentrations using the calibration signal obtained by adding a known AMC concentration into each particular plasma sample in the presence of the fluorogenic substrate and the tested substance. The corrections were done taking into account the substrate consumption and the nonlinearity of the AMC calibration curve. The area under the thrombin time curve over a period of 60 min (endogenous thrombin potential, ETP) was determined.

Human thrombin = target: T1, Human thrombin (Homo sapiens, UniProt P00734); assay: Thrombin induced hydrolysis of specific substrates in buffer system; type: biochemical
T1 construct: Human thrombin (8.3 mg/ml) was obtained from Hematologic Technologies Inc; purchased Hematologic Technologies Inc. (Essex Junction, VT, USA)
Experimental: The kinetics of thrombin inhibition was determined from the hydrolysis reaction of a specific substrate by thrombin in the presence of the tested substances. The chromogenic substrate (Tosyl-Gly-Pro-Arg-p-nitroanilide) or fast fluorogenic substrate (BOC-Ala-Pro-Arg-AMC) was used.
Plate wells were filled with 20 mM HEPES (pH 8.0) containing 140 mM NaCl and 0.1% polyethylene glycol (molecular weight 6000 Da). Thereafter, substrate was sequentially added to each well (final concentration, 100 µM), followed by the substance being tested (to a final concentration that was varied) and thrombin (final concentration, 0.2 nM). The hydrolysis rate was monitored spectrophotometrically at 405 nm (absorption maximum of the reaction product – p-nitroaniline), or fluorometrically (λex = 380 nm; λem = 440 nm for fluorescent reaction product 7-amino-4-methylcoumarine).
The initial rate was determined as the slope of the linear portion of the kinetic curve over the first 10 to 20 min of measurement. The inhibitory effect was expressed as the percentage reduction of the initial hydrolysis rate. The reaction rate in the absence of inhibitor was taken as 100%. Each result is the mean of two parallel determinations.
The inhibitor concentration was determined decreasing hydrolysis rate to 50% (IC50). Values of the inhibition constants were calculated on the assumption about competitive mechanism of inhibition using equation (1) [drawing 1] (1) where: KI - the constant of inhibition,
• S - the concentration of a substrate (100 µM), • KM - the Michaelis constant of a specific substrate for thrombin (9.44 µM, average from ref. [23], [24] and our measurements for chromogenic and 13 µM for the fluorogenic substrate, respectively).

C57Bl/6 mice [2] = assay: Acute toxicity in mice; type: in vivo, mouse; details: females, mortality after 2 or less hours
Experimental: Preliminary safety examination for the best synthesized inhibitors was carried out by measuring their acute toxicity in C57Bl/6 mice (females, 26–28 g, intraperitoneal administration). The total number of animals used in each experiment was 20–35. The dose of inhibitor that caused mortality in half of the animals after 2 or less hours (LD50) was determined. […] For administration of different doses of an inhibitor, different volumes of the initial stock inhibitor solution were supplemented with corresponding volumes of vehicle (20% cremophore EL in normal saline) to obtain a constant administered volume of 1.8 ml in each case. To obtain the highest doses of inhibitors, the animals were injected with 2.3 ml of stock inhibitor solutions instead.

[3] = tested on: hemodilution-induced hypercoagulation in rats; assay: Model of hemodilution-induced hypercoagulation in rats; type: in vivo, rat; details: 23.0±4.5% blood loss, infusion of saline supplemented with 2 µM inhibitor, 10, 30 or 60 min after infusion
Experimental: In particular, 200 µl of PPP samples were placed in the wells of a 96-well plate. Then, 2 µl of a solution of fluorogenic substrate BOC-Ile-Gly-Arg-AMC in DMSO (initial concentration 41 mM) was added, and coagulation was triggered by 3 µl of activator, which was a 1∶20 dilution of a standard prothrombin time reagent (Renam, Moscow, Russia) in the buffer (20 mM HEPES, 140 mM NaCl, pH 7.5) supplemented with 1.4 M CaCl2. Measurement of fluorescence (120 min) and processing of the results obtained were carried out by the methods described earlier.
The anticoagulation activity of one of the new thrombin inhibitors (4i) was studied in vivo in a newly developed model of hemodilution-induced hypercoagulation in rats. Experiments were carried out on male outbred white rats weighing 250–450 g and housed in a vivarium. A polyethylene cannula was implanted into the right femoral artery of the rats, which were anesthetized with thiopental (40 mg/kg of body weight, i.p.), to a depth of 4–5 cm. […] Coagulation was analyzed in samples of blood collected before hemodilution for all animals. […] The volume of blood loss was calculated on the assumption that the total blood volume of the rat is equal to 6.5% of the body weight.

C57Bl/6 mice [4] = details: ref [38]; cited from earlier work
[5] = tested on: thrombin generation in normal donor plasma (PPP); details: ref [36], [37], read-out: IC50 for ETP reduction; cited from earlier work
[6] = Table S2, read-out: IC50 for ETP reduction in plasma
[7] = chromogenic substrate (SCHR), calculated assuming competitive type of inhibition, read-out: Inhibition of thrombin activity (in buffer system) Ki
[8] = chromogenic substrate (SCHR), read-out: Inhibition of thrombin activity (in buffer system) IC50
[9] = ETP reduction by 50% in plasma in vitro, read-out: IC50 for reduction of thrombin generation in plasma
[10] = chromogenic substrate Tosyl-Gly-Pro-Arg-p-nitroanilide, calculated assuming competitive inhibition, KM 9.44 µM, read-out: KI for thrombin inhibition in buffer system
[11] = fast fluorogenic substrate (SFLUO), 100 µM, thrombin 0.2 nM, read-out: Inhibition of specific thrombin substrate hydrolysis in buffer system IC50
[12] = fast fluorogenic substrate (SFLUO), calculated from IC50 assuming a competitive mechanism of inhibition, read-out: Inhibition of specific thrombin substrate hydrolysis in buffer system KI

Row | SMILES | IC50 (Human thrombin; [8]) [µM] | LD50 (mouse), intraperitoneal administration (C57Bl/6 mice [2]) | IC50 [1, 9] [µM] | Ki (Human thrombin; [10]) [µM] | further results
1 | Cc1cc(OCCC[n+]2ccc(N)cc2)cc(OS(=O)(=O)c2ccccc2Cl)c1 [4d] | 3.4 | – | – | – | IC50 [1, 6]: 40 µM; Ki (Human thrombin; [7]): 0.293 µM
2 | Cc1cc(OCC[n+]2ccc(N)cc2)cc(OS(=O)(=O)c2ccccc2F)c1.[I-] [4e] | 0.0035 | 523.1 ± 92.3 mg/kg | 0.1 | 0.0003 | –
3 | Cc1cc(OCC[n+]2ccc(N)cc2)cc(OS(=O)(=O)c2ccccc2Cl)c1.[I-] [4f] | 0.00244 | 679.0 ± 152.7 mg/kg | 0.26 | 0.00021 | –
4 | Cc1cc(OCC[n+]2ccc(N)cc2)cc(OS(=O)(=O)c2ccccc2S(C)(=O)=O)c1.[I-] [4g] | 0.0087 | 166.7 ± 20.0 mg/kg | 0.16 | 0.00075 | –
5 | Cc1cc(OCC[n+]2ccc(N)cc2)cc(OS(=O)(=O)c2ccc(Cl)cc2)c1.[I-] [4h] | 0.009 | 372.7 ± 84.6 mg/kg | 0.15 | 0.00078 | –
6 | Cc1cc(OCC[n+]2ccc(N)cc2)cc(OS(=O)(=O)c2ccccc2)c1.[I-] [4i] | 0.009 | 418.9 ± 33.0 mg/kg | 0.25 | 0.00078 | Effect on development of hypercoagulation (change of ETP relative to initial level) [3]: canceled the hypercoagulation effect of hemodilution
7 | Cc1cc(OCCCSC(=N)N)cc(OS(=O)(=O)c2ccccc2)c1 [8a] | 0.097 | – | – | – | IC50 [1, 6]: 8 µM; Ki (Human thrombin; [7]): 0.0084 µM
8 | Cc1cc(OCCSC(=N)N)cc(OS(=O)(=O)c2ccccc2S(C)(=O)=O)c1.I [8b] | 0.017 | >458.0 ^5) mg/kg | 0.8 | 0.0015 | –
9 | Cc1cc(OCCSC(=N)N)cc(OS(=O)(=O)c2ccccc2Cl)c1.I [8c] | 0.0038 | 793.5 ± 118.5 mg/kg | 0.16 | 0.00033 | –
10 | Cc1cc(OCCSC(=N)N)cc(OS(=O)(=O)c2ccccc2)c1.I [8d] | 0.011 | >1111.1 mg/kg | 0.9 | 0.00095 | –
11 | Cc1cc(OCCCSC(=N)N)cc(OS(=O)(=O)c2ccccc2Cl)c1 [8e] | 0.0116 | – | – | – | IC50 [1, 6]: 4.1 µM; Ki (Human thrombin; [7]): 0.001 µM
12 | Cc1cc(OCCCSC(=N)N)cc(OS(=O)(=O)c2ccccc2F)c1.I [8f] | 0.0235 | >653.1 ^5) mg/kg | 1.24 | 0.00203 | –
13 | CNC(=N)SCCCOc1cc(C)cc(OS(=O)(=O)c2ccccc2Cl)c1 [8g] | 5.5 | – | – | – | IC50 [1, 6]: 25.2 µM; Ki (Human thrombin; [7]): 0.474 µM
14 | CNC(=N)SCCOc1cc(C)cc(OS(=O)(=O)c2ccccc2Cl)c1.I [8h] | 0.0658 | >287.0 ^5) mg/kg | 0.53 | 0.0057 | –
15 | CC1CNc2c(cccc2S(=O)(=O)N[C@@H](CCCNC(=N)N)C(=O)N2CC[C@@H](C)C[C@@H]2C(=O)O)C1 (stereo partly drawn) [Argatroban] | – | – | 0.65 | – | LD50 (mouse), intraperitoneal administration (C57Bl/6 mice [4]): 475 mg/kg; IC50 [5]: 0.6 to 0.97 µM
16 | CC(C)(C)CC(C)(C)c1ccc(OCCSC(=N)N)cc1 [NSC 4482] | – | – | – | – | IC50 (Human thrombin; [11]): 3.45 µM; Ki (Human thrombin; [12]): 0.4 µM
17 | CC12CCC3C(CC=C4CC(SC(=N)N)CCC43C)C1CCC2=O (stereo not drawn) [NSC 41339] | – | – | – | – | IC50 (Human thrombin; [11]): 240 µM; Ki (Human thrombin; [12]): 27.6 µM
18 | CC(=O)C1CCC2C3CC=C4CC(SC(=N)N)CCC4(C)C3CCC12C (stereo not drawn) [NSC 123477] | – | – | – | – | IC50 (Human thrombin; [11]): 75 µM; Ki (Human thrombin; [12]): 8.6 µM
19 | N=C(N)c1ccc(-c2ccc(-c3ccc(C(=N)N)cc3)o2)cc1 [NSC 305831] | – | – | – | – | IC50 (Human thrombin; chromogenic substrate (SCHR), 100 µM, thrombin 0.2 nM, read-out: Inhibition of specific thrombin substrate hydrolysis in buffer system IC50): 72 µM; Ki (Human thrombin; chromogenic substrate (SCHR), calculated from IC50 assuming a competitive mechanism of inhibition, read-out: Inhibition of specific thrombin substrate hydrolysis in buffer system KI): 6.2 µM
20 | Cc1ccc2nc(-c3ccc(CSC(=N)N)cc3)oc(=O)c2c1 [NSC 328131] | – | – | – | – | IC50 (Human thrombin; [11]): ~35 µM; Ki (Human thrombin; [12]): 4 µM
